12 compounds from patent US8163724B2, “Glucocorticosteroids, processes for their preparation, pharmaceutical compositions containing them and their use in therapy” (AstraZeneca AB, priority 2007, dated 2012) can be followed below.

The test has as its target T1, recombinant human GR (Homo sapiens, UniProt P04150).
T1 construct: purchased Panvera/Invitrogen P2812 (kit P2893)
T1 sequence (P04150 1-777): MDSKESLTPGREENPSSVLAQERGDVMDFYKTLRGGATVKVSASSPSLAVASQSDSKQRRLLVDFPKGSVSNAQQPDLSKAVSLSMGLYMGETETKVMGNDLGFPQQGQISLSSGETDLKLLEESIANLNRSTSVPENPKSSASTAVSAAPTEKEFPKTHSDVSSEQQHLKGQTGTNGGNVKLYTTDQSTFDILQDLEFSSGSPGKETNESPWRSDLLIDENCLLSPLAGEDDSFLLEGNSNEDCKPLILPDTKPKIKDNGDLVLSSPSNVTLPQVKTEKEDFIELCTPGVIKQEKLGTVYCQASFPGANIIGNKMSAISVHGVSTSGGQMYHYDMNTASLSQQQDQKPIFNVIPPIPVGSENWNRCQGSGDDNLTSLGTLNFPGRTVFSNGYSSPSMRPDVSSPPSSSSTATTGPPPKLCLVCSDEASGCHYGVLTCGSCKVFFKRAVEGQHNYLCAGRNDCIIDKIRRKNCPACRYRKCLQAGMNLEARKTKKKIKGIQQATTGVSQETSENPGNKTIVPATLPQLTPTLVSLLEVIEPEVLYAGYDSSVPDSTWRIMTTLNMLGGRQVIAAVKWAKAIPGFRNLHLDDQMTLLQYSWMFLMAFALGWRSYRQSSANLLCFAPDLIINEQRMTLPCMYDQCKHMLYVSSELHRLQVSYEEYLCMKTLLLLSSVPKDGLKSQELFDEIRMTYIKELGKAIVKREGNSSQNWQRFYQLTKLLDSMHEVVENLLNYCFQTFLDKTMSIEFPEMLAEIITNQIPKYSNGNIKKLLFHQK
As to the kind of experiment: Human Glucocorticoid Receptor (GR) Assay (fluorescence polarization, Panvera/Invitrogen kit). It counts as binding. Particulars: fluorescence polarization; GS Red tracer; 2 hours at room temperature; 100% control 10 μM Dexamethasone; read-out: Inhibition of GR binding, IC50. The method in brief:
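Fluorescence polarization competition with recombinant GR and GS Red fluorescent ligand plus stabilizing peptide and DTT in potassium phosphate/sodium molybdate/EDTA buffer with DMSO. Incubated 2 hours at room temperature in the dark; 0% control DMSO, 100% control 10 μM dexamethasone.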
In general terms: Fluorescence polarisation rises when a labelled molecule tumbles more slowly, as on binding a larger partner.
For `CC(=O)O[C@]1(C(=O)CSC#N)CC[C@H]2[C@@H]3CCC4=Cc5c(cnn5-c5ccc(F)cc5)C[C@]4(C)[C@H]3[C@@H](O)C[C@@]21C` [Example 130, (1R,3aS,3bS,10aR,10bS,11S,12aS)-7-(4-Fluorophenyl)-11-hydroxy-10a,12a-dimethyl-1-(thiocyanatoacetyl)-1,2,3,3a,3b,4,5,7,10,10a,10b,11,12,12a-tetradecahydrocyclopenta[5,6]naphtho[1,2-f]indazol-1-yl acetate], the IC50 – broadly, the midpoint of a concentration-inhibition curve – was found to be 5.9 nM.
The result for `CCSCC(=O)[C@@]1(OC(C)=O)CC[C@H]2[C@@H]3CCC4=Cc5c(cnn5-c5ccc(F)cc5)C[C@]4(C)[C@H]3[C@@H](O)C[C@@]21C` [Example 131, (1R,3aS,3bS,10aR,10bS,11S,12aS)-1-[(Ethylsulfanyl)acetyl]-7-(4-fluorophenyl)-11-hydroxy-10a,12a-dimethyl-1,2,3,3a,3b,4,5,7,10,10a,10b,11,12,12a-tetradecahydrocyclopenta[5,6]naphtho[1,2-f]indazol-1-yl acetate] reads 4.1 nM.
`CSSCC(=O)[C@@]1(OC(C)=O)CC[C@H]2[C@@H]3CCC4=Cc5c(cnn5-c5ccc(F)cc5)C[C@]4(C)[C@H]3[C@@H](O)C[C@@]21C` [Example 134, (1R,3aS,3bS,10aR,10bS,11S,12aS)-7-(4-Fluorophenyl)-11-hydroxy-10a,12a-dimethyl-1-[(methyldisulfanyl)acetyl]-1,2,3,3a,3b,4,5,7,10,10a,10b,11,12,12a-tetradecahydrocyclopenta[5,6]naphtho[1,2-f]indazol-1-yl acetate]: the IC50 stood at 2.9 nM.
Consider `COC1(C(=O)O[C@]2(C(=O)SCC#N)CC[C@H]3[C@@H]4CCC5=Cc6c(cnn6-c6ccc(F)cc6)C[C@]5(C)[C@H]4[C@@H](O)C[C@@]32C)CC1` [Example 135, (1R,3aS,3bS,10aR,10bS,11S,12aS)-1-{[(Cyanomethyl)sulfanyl]carbonyl}-7-(4-fluorophenyl)-11-hydroxy-10a,12a-dimethyl-1,2,3,3a,3b,4,5,7,10,10a,10b,11,12,12a-tetradecahydrocyclopenta[5,6]naphtho[1,2-f]indazol-1-yl 1-methoxycyclopropanecarboxylate], for which the IC50 amounted to 7.6 nM.
Regarding `C[C@]12Cc3cnn(-c4ccc(F)cc4)c3C=C1CC[C@@H]1[C@@H]2[C@@H](O)C[C@@]2(C)[C@H]1CC[C@]2(OC(=O)C1CCCO1)C(=O)SCF` (stereo partly drawn) [Example 137, (1R,3aS,3bS,10aR,10bS,11S,12aS)-1-{[(Fluoromethyl)sulfanyl]carbonyl}-7-(4-fluorophenyl)-11-hydroxy-10a,12a-dimethyl-1,2,3,3a,3b,4,5,7,10a,10b,11,12,12a-tetradecahydrocyclopenta[5,6]naphtho[1,2-f]indazol-1-yl (2R)-tetrahydrofuran-2-carboxylate], the IC50 is 2.8 nM.
Turning to `C[C@]12Cc3cnn(-c4ccc(F)c(CO)c4)c3C=C1CC[C@@H]1[C@@H]2[C@@H](O)C[C@@]2(C)[C@H]1CC[C@]2(OC(=O)C1CC1)C(=O)SCF` [Example 139, (1R,3aS,3bS,10aR,10bS,11S,12aS)-7-[4-Fluoro-3-(hydroxymethyl)phenyl]-1-{[(fluoromethyl)thio]carbonyl}-11-hydroxy-10a,12a-dimethyl-1,2,3,3a,3b, 4,5,7,10,10a,10b,11,12,12a-tetradecahydrocyclopenta[5,6]naphtho[1,2-f]indazol-1-yl cyclopropanecarboxylate], the IC50 was determined as 3.5 nM.
The result for `COCC(=O)O[C@]1(C(=O)SCC#N)CC[C@H]2[C@@H]3CCC4=Cc5c(cnn5-c5ccc(F)c(CO)c5)C[C@]4(C)[C@H]3[C@@H](O)C[C@@]21C` [Example 140, (1R,3aS,3bS,10R,10bS,11S,12aS)-1-{[(Cyanomethyl)thio]carbonyl}-7-[4-fluoro-3-(hydroxymethyl)phenyl]-11a,12a-dimethyl-1,2,3,3a,3b,4,5,7,10,10a,10b,11,12,12a-tetradecahydrocyclopenta[5,6]naphtho[1,2-f]indazol-1-yl Methoxyacetate] reads 2.3 nM; that for `C[C@@H]1C[C@H]2[C@@H]3CCC4=Cc5c(cnn5-c5ccc(F)cc5)C[C@]4(C)[C@H]3[C@@H](O)C[C@]2(C)[C@@]1(OC(=O)c1ccco1)C(=O)SCC#N` [Example 141, (1R,2R,3aS,3bS,10aR,10bS,11S,12aS)-1-{[(Cyanomethyl)thio]carbonyl}-7-(4-fluorophenyl)-11-hydroxy-2,10a,12a-trimethyl-1,2,3,3a,3b,4,5,7,10,10a,10b,11,12,12a-tetradecahydrocyclopenta[5,6]naphtho[1,2-f]indazol-1-yl furan-2-carboxylate], 13 nM.
For `Cc1cc(-n2ncc3c2C=C2CC[C@@H]4[C@H]([C@@H](O)C[C@@]5(C)[C@H]4CC[C@]5(OC(=O)C4CC4)C(=O)OCC#N)[C@@]2(C)C3)ccn1` [Example 142, Cyanomethyl(1R,3aS,3bS,10aR,10bS,11S,12aS)-1-[(cyclopropylcarbonyl)oxy]-11-hydroxy-10a,12a-dimethyl-7-(2-methylpyridin-4-yl)-1,2,3,3a,3b,4,5,7,10,10a,10b,11,12,12a-tetradecahydrocyclopenta[5,6]naphtho[1,2-]indazole-1-carboxylate] the value was 1.6 nM; for `C[C@]12Cc3cnn(-c4ccccn4)c3C=C1CC[C@@H]1[C@@H]2[C@@H](O)C[C@@]2(C)[C@H]1CC[C@]2(OC(=O)C1CC1)C(=O)OCC#N` [Example 143, Cyanomethyl(1R,3aS,3bS,10aR,10bS,11S,12aS)-1-[(cyclopropylcarbonyl)oxy]-11-hydroxy-10a,12a-dimethyl-7-pyridin-2-yl-1,2,3,3a,3b,4,5,7,10,11a,10b,11,12,12a-tetradecahydrocyclopenta[5,6]naphtho[1,2-f]indazole-1-carboxylate], 1.5 nM; for `C[C@]12Cc3cnn(-c4ccc(F)c(CO)c4)c3C=C1CC[C@@H]1[C@@H]2[C@@H](O)C[C@@]2(C)[C@H]1CC[C@]2(OC(=O)C1CC1)C(=O)SCC#N` [Example 144, (1R,3aS,3bS,10aR,10bS,11S,12aS)-1-{[(Cyanomethyl)sulfanyl]carbonyl}-7-[4-fluoro-3-(hydroxymethyl)phenyl-]-11-hydroxy-10a,12a-dimethyl-1,2,3,3a,3b, 4,5,7,10,10a,11,12,12a-tetradecahydrocyclopenta[5,6]naphtho[1,2-f]indazol-1-yl Cyclopropanecarboxylate], 3.8 nM.
For `C[C@]12Cc3cnn(-c4ccc(F)c(CO)c4)c3C=C1CC[C@@H]1[C@@H]2[C@@H](O)C[C@@]2(C)[C@H]1CC[C@]2(OC(=O)C1CC1)C(=O)OCC#N` [Example 145, Cyanomethyl(1R,3aS,3bS,10aR,10bS,11S,12aS)-1-[(cyclopropylcarbonyl)oxy]-7-[4-fluoro-3-(hydroxymethyl)phenyl]-11-hydroxy-10a,12a-dimethyl-1,2,3,3a,3b,4,5,7,10,10a,10b,11,12,12a-tetradecahydrocyclopenta[5,6]naphtho[1,2-f]indazole-1-carboxylate] the value was 3.2 nM.
